Data as given in patent US10160783B2, “Neuroactive 13, 17-substituted steroids as modulators for GABA type-A receptors” (priority 2013, dated 2018).
Where two headings read alike, the source gives them in different places.

Assays:
[1] = biological target: T1, rat α1β2γ2L type GABAA receptors expressed in Xenopus laevis oocytes (Rattus norvegicus, UniProt P18508+P62813+P63138, INS375LLRMFSFK); experiment: Potentiation of GABA-mediated chloride currents and direct gating, oocyte electrophysiology; format: cell-based; conditions: ± SEM, N ≥ 4; for oocyte electrophysiology 0.1 μM: ratio of currents measured in the presence/absence of added compound: 0.1 μM compound; for oocyte electrophysiology 0.1 μM: ratio of currents measured in the presence/absence of added compound / oocyte electrophysiology 1 μM: ratio of currents measured in the presence/absence of added compound / oocyte electrophysiology 10 μM: ratio of currents measured in the presence/absence of added compound: 2 μM GABA control response; for oocyte electrophysiology 1 μM: ratio of currents measured in the presence/absence of added compound: 1 μM compound; for oocyte electrophysiology 10 μM: ratio of currents measured in the presence/absence of added compound: 10 μM compound; for (gating) 10 μM: ratio of compound only current/2 μM GABA current: direct current gated by 10 μM compound in the absence of GABA
T1 construct: expressed in transfected cells; host or cells: Xenopus laevis oocytes
Protocol: The compounds of the present disclosure were evaluated for the ability to potentiate chloride currents mediated by 2 μM GABA at rat α1β2γ2L type GABAA receptors expressed in Xenopus laevis oocytes and the results are shown in Table 2.

[2] = biological target: picrotoxin binding site on GABAA receptors; experiment: [35S]-TBPS displacement (inhibition of [35S]-TBPS binding); conditions: non-competitive displacement of [35S]-TBPS; ± SEM, duplicate experiments in triplicate
Protocol: The IC50 values for non-competitive displacers of [^35S]-TBPS from the picrotoxin binding site on GABAA receptors are reported in Table 1.
Results presented are from duplicate experiments performed in triplicate. Error limits are calculated as standard error of the mean. Methods used are known in the art (see Jiang, X., et al., Neurosteroid analogues. 9. Conformationally constrained pregnanes: structure-activity studies of 13,24-cyclo-18,21-dinorcholane analogues of the GABA modulatory and anesthetic steroids (3α,5α)- and […]. J. Med. Chem., 46: 5334-48 (2003)—the contents of which are hereby incorporated by reference in their entirety).

Tadpole = Tadpole loss of righting reflex (LRR) and loss of swimming reflex (LSR); format: in vivo; conditions: ± SEM
Protocol: Table 3 discloses the anesthetic effects of the compounds of the present disclosure. In particular, the anesthetic effect of the compounds of the present disclosure on Loss of Righting Reflex (LRR) and Loss of Swimming Reflex (LSR).
Methods used are known in the art (see Jiang, X., et al.). Error limits are calculated as standard error of the mean (N=10 or more animals at each of five or more different concentrations).

[3] = loss of righting reflex, read-out: Tadpole LRR EC50
[4] = loss of swimming reflex, read-out: Tadpole LSR EC50

T1 sequence (P62813 28-455, stated change not applied): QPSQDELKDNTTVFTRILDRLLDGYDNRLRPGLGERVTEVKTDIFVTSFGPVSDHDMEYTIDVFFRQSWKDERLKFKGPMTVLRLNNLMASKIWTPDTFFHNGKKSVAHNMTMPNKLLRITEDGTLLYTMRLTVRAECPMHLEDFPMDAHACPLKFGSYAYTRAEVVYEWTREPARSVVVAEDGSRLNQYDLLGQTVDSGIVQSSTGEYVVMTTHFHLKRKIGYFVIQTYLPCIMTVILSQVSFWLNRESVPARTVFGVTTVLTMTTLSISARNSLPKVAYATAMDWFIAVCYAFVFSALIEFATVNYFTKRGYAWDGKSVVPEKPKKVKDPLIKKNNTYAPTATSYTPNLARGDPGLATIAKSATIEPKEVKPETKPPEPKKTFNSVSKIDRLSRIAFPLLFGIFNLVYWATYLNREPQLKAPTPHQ
T1 sequence (P63138 26-474, stated change not applied): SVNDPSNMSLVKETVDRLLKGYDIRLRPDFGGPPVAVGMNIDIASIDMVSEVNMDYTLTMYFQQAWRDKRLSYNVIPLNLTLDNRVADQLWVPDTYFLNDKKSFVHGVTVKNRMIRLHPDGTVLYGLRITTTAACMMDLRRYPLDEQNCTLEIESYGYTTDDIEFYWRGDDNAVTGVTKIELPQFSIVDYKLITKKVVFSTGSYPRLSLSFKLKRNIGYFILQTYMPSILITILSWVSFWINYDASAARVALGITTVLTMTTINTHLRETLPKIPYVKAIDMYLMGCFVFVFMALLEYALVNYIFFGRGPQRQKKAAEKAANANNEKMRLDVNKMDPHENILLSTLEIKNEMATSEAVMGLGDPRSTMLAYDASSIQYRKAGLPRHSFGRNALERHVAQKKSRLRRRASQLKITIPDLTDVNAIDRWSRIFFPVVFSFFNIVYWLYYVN
T1 sequence (P18508 with tags, fused parts or gaps INS375LLRMFSFK): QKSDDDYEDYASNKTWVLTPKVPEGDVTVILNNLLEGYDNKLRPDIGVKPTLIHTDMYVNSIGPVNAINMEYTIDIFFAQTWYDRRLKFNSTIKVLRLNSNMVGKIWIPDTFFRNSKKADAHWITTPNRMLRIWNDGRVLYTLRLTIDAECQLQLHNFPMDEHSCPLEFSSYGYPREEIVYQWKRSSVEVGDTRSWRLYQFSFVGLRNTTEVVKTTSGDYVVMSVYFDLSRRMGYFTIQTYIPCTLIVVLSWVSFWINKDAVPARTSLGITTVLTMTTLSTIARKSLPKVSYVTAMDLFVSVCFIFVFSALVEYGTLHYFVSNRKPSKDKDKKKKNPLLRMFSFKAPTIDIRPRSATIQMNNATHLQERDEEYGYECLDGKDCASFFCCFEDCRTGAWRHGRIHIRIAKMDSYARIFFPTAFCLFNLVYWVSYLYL

| Compound | oocyte electrophysiology 0.1 μM: ratio of currents measured in the presence/absence of added compound [1] | oocyte electrophysiology 1 μM: ratio of currents measured in the presence/absence of added compound [1] | oocyte electrophysiology 10 μM: ratio of currents measured in the presence/absence of added compound [1] | (gating) 10 μM: ratio of compound only current/2 μM GABA current [1] | IC50 [2] [nM] | melting point [°C] | EC50 (Tadpole; [3]) [nM] | EC50 (Tadpole; [4]) [nM] | Tadpole LSR EC50 (μM) (Tadpole; loss of swimming reflex) |
| --- | --- | --- | --- | --- | --- | --- | --- | --- | --- |
| C=C[C@H]1CC[C@H]2[C@@H]3C[C@@H](OC)[C@H]4C[C@H](O)CC[C@]4(C)[C@H]3CC[C@]12C(C)=O [KK-143, 1-[(3α,5α,6β)-3-Hydroxy-6-methoxy-18-norpregn-20-en-13-yl]ethanone] | 1.23 ± 0.06 | 2.93 ± 0.30 | 8.43 ± 0.69 | 0.07 ± 0.02 | 270 ± 19 | 158 to 160 | 610 ± 60 | 1730 ± 30 |  |
| CC[C@H]1CC[C@H]2[C@@H]3CC[C@H]4C[C@H](O)CC[C@]4(C)[C@H]3CC[C@]12C(C)=O [XJ-100, 1-[(3α,5α)-3-Hydroxy-18-norpregnan-13-yl]ethanone] | 1.33 ± 0.20 | 5.01 ± 0.89 | 8.41 ± 0.66 | −0.06 ± 0.06 | 276 ± 130 | 182 to 184 | 460 ± 160 | > 10000 |  |
| C=C[C@H]1CC[C@H]2[C@@H]3CC[C@H]4C[C@H](O)CC[C@]4(COC)[C@H]3CC[C@]12C(C)=O [KK-145, 1-[(3α,5α)-3-Hydroxy-19-methoxy-18-norpregn-20-en-13-yl]ethanone] | 1.75 ± 0.14 | 13.74 ± 3.71 | 35.57 ± 12.85 | 0.56 ± 0.07 | 53 ± 4 | 124 to 126 | 140 ± 10 | 550 ± 10 |  |
| CC(=O)[C@]12CC[C@H]3[C@@H](CC[C@H]4C[C@H](O)CC[C@@]43C)[C@@H]1CC[C@@H]2CO [ZYC-73, 1-[(3α,5α,17β)-3-Hydroxy-17-hydroxymethyl-18-norandrostan-13-yl]ethanone] | 1.07 ± 0.15 | 1.42 ± 0.16 | 6.16 ± 0.71 |  | 1460 | 166 to 168 | > 10000 |  | None |
| CC(=O)[C@H]1CC[C@H]2[C@@H]3CC[C@H]4C[C@H](O)CC[C@]4(C)[C@H]3CC[C@]12C(C)=O [ZYC-71, (3α,5α)-13-Acetyl-3-hydroxy-18-norpregnan-20-one] | 1.82 ± 0.03 | 9.31 ± 0.46 | 19.44 ± 1.69 | 0.22 ± 0.01 | 82 ± 7 | 180 to 181 | 1730 ± 10 | 5480 ± 150 |  |
| C=C[C@]12CC[C@H]3[C@@H](CC[C@H]4C[C@H](O)CC[C@@]43C)[C@@H]1CC[C@@H]2C(C)=O [ZYC-75] |  |  |  |  |  | 146 to 147 | 670 ± 10 | 2640 ± 10 |  |
| C=C[C@H]1CC[C@H]2[C@@H]3CC[C@H]4C[C@H](O)CC[C@]4(C)[C@H]3CC[C@]12C(C)=O [XJ-99, 1-[(3α,5α)-3-Hydroxy-18-norpregn-20-en-13-yl]ethanone] | 1.73 ± 0.20 | 3.96 ± 0.99 | 4.37 ± 1.28 | 0.07 ± 0.02 | 43 ± 12 | 178 to 179.5 | 50 | 140 |  |
| C=C[C@H]1CC[C@H]2[C@@H]3CC[C@H]4C[C@H](O)CC[C@]4(C)[C@H]3[C@@H](OC)C[C@]12C(C)=O [KK-144, 1-[(3α,5α,11β)-3-Hydroxy-11-methoxy-18-norpregn-20-en-13-yl]ethanone] | 1.40 ± 0.11 | 5.38 ± 0.55 | 10.59 ± 1.31 | 0.18 ± 0.02 | 72 ± 16 | 127 to 129 | 180 ± 10 | 550 ± 10 |  |
| C=C[C@H]1CC[C@H]2[C@@H]3CC[C@H]4C[C@H](O)[C@@H](OC)C[C@]4(C)[C@H]3CC[C@]12C(C)=O [KK-140, 1-[(2β,3α,5α)-3-Hydroxy-2-Methoxy-18-norpregn-20-en-13-yl]ethanone] | 5.39 ± 2.76 | 11.90 ± 1.08 | 17.29 ± 2.10 | 0.27 ± 0.06 | 17 ± 3 | 155 to 157 | 50 | 300 |  |
| CC(=O)[C@]12CC[C@H]3[C@@H](CC[C@H]4C[C@H](O)CC[C@@]43C)[C@@H]1CC[C@@H]2[C@@H](C)O [ZYC-72, (3α,5α,20R)-13-Acetyl-18-norpregnane-3,20-diol] | 0.80 ± 0.08 | 1.30 ± 0.11 | 2.78 ± 0.37 | −0.03 ± 0.11 | 978 ± 618 | 159 to 161 | 3060 | > 10000 |  |
| C=C[C@]12CC[C@H]3[C@@H](CC[C@H]4C[C@H](O)CC[C@@]43C)[C@@H]1CC[C@@H]2[C@@H](C)O [ZYC-76, (3α,5α,20R)-13-Ethenyl-18-norpregnan-3,20-diol] | 1.00 ± 0.01 | 1.56 ± 0.13 | 7.28 ± 1.76 | 0.04 ± 0.02 | 497 ± 59 | 193 to 195 | 742000 ± 202000 | 1740 ± 30 |  |
| CC(=O)[C@]12CC[C@H]3[C@@H](CC[C@H]4C[C@H](O)CC[C@@]43C)[C@@H]1CC[C@@H]2CCl [ZYC-74, 1-[(3α,5α,17β)-17-Chloromethy-3-hydroxy-18-norandrostan-13-yl]ethanone] | 1.06 ± 0.04 | 1.98 ± 0.21 | 9.38 ± 1.71 | 0.03 ± 0.01 | 415 ± 83 | 161 to 162 | 3330 ± 1410 | 5480 ± 200 |  |
